One test concerns S. aureus COL (MRSA). The test is described as follows: Synergistic activity with Ertapenem (4 μg/ml) against MRSA, MIC. The format is cell-based, Staphylococcus aureus. Conditions: Ertapenem 4 μg/ml; D-form. An outline of the steps: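 Broth microdilution in MH broth with 5.0×10^5 cfu/ml inoculum, 37° C for 20–24 h. MIC was the lowest concentration without visible growth (range 0.125–128 μg/ml). L- and D-form peptides were tested on S. aureus RN4220 and COL (MRSA), alone and with Ertapenem at 4 μg/ml.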

For test [1], the system named is Escherichia coli (ATCC 25922). The format is cell-based. Conditions: Peptides 50 μg; Gentamycin 5 μg; diameter including the wells. The method, then: (§1) The radial diffusion assay (RDA) was carried out as described by Andersen et al. (2010). Briefly, 30 ml of 1/10 Muller-Hinton broth (MHB) supplemented with 1% agarose and 5.0×10^5 CFU/ml S. aureus or E. coli or K. pneumoniae, P. aeruginosa cells was poured into a single-well omnitray (Nunc) and overlaid with a TSP 96-well plate. […] The peptides were also tested against Fusarium oxysporum and Verticillium dahliae, for which 1/3 potato dextrose agarose was used. To test the synergistic effect of peptides, each peptide was mixed in equimolar concentrations. Mix1 (met1-12), Mix2 (met3, 4 and 5), Mix3 (met 8, 9 and 10), Mix 4 (met11, 12) and Mix5 (8, 9, 10, 11, 12) were prepared and tested against E. coli and S. aureus. Gentamicin and vancomycin were included as positive controls for bacteria and amphotericin B was used as the control for fungi.

Test [2] concerns Klebsiella pneumoniae (ATCC 10031). The class given is cell-based. Conditions: Peptides 50 μg; Gentamycin 5 μg; diameter including the wells. The method, then: as §1
Test [3] concerns Staphylococcus aureus (ATCC 25923). The class given is cell-based. Conditions: Peptides 50 μg; Gentamycin 5 μg; diameter including the wells. The procedure:
as §1

The test system of test [4] is Pseudomonas aeruginosa (ATCC 27853). The test is described as follows: Radial diffusion assay (RDA) against P. aeruginosa. The format is cell-based. Conditions: Peptides 50 μg; Gentamycin 5 μg; diameter including the wells. The procedure: as §1
Test [5] concerns Escherichia coli (ATCC 25922). The class given is cell-based. The procedure: (§2) Minimum inhibition concentrations (MICs) were determined against Escherichia coli (ATCC 25922), Staphylococcus aureus (ATCC 25923), Klebsiella pneumoniae (ATCC 10031) and Pseudomonas aeruginosa (ATCC 27853). Also clinical strains of E. coli, K. pneumoniae, E. cloacae, P. aeruginosa, Serratia marcescens, Proteus mirabilis, S. pneumoniae, Acinetobacter baumannii, A. johnsonii and S. aureus were used for MICs assays. Additionally, clinical strains of yeast including Candida albicans, C. glabrata, C. parapsilosis and C. quillermondiae were used. The susceptibility of these microorganisms to Chain peptides were determined using micro broth dilution assay. Colonies of the respective microorganism from Muller Hinton (MH) agar plates incubated overnight were suspended in MH broth media and final concentration of microorganism was adjusted to 5.0×10^5 cfu/ml. An aliquot of 10 μl of each Chain peptide, or gentamicin, tetracycline as reference antibiotics were added in differing concentrations along with 90 μl of bacterial suspension to 96 well polypropylene plates and incubated at 37° C. for 20 to 24 hours. Concentrations of Chain peptides and reference antibiotics ranged from 0.125 to 128 μg/ml and the MICs were recorded as the lowest concentration with no visual growth of bacteria. Similarly, antifungal MICs were tested in Potato dextrose broth.

Test [6] has as its system Klebsiella pneumoniae (ATCC 10031). The class given is cell-based. The procedure:
as §2

Test [7] has as its system Pseudomonas aeruginosa (ATCC 27853). The format is cell-based. The procedure: as §2
Test [8] concerns Staphylococcus aureus (ATCC 25923). The class given is cell-based. The method, then: as §2
In test [9] the test system is Escherichia coli, Staphylococcus aureus, Klebsiella pneumoniae and Pseudomonas aeruginosa. As to the kind of experiment: Radial diffusion assay, summary over the bacteria tested. The class given is cell-based. Conditions: Gentamicin 5 μg. The procedure: The radial diffusion assay (RDA) was carried out as described by Andersen et al. (2010). Briefly, 30 ml of 1/10 Muller-Hinton broth (MHB) supplemented with 1% agarose and 5.0×10^5 CFU/ml S. aureus or E. coli or K. pneumoniae, P. aeruginosa cells was poured into a single-well omnitray (Nunc) and overlaid with a TSP 96-well plate. One hundred μg of each synthesized peptide was tested. The peptides were also tested against Fusarium oxysporum and Verticillium dahliae, for which 1/3 potato dextrose agarose was used. To test the synergistic effect of peptides, each peptide was mixed in equimolar concentrations. Mix1 (met1-12), Mix2 (met3, 4 and 5), Mix3 (met 8, 9 and 10), Mix 4 (met11, 12) and Mix5 (8, 9, 10, 11, 12) were prepared and tested against E. coli and S. aureus. Gentamicin and vancomycin were included as positive controls for bacteria and amphotericin B was used as the control for fungi.

Where a SMILES comes first, the peptide text is derived from it. [ ]: non-standard residue; d: D form.

As to `CC(C)C[C@@H](NC(=O)[C@@H](CCCCN)NC(=O)[C@@H](CCCCN)NC(=O)[C@@H](Cc1ccccc1)NC(=O)[C@@H](CC(C)C)NC(=O)[C@@H](Cc1c[nH]c2ccccc12)NC(=O)[C@@H](CCCNC(=N)N)NC(=O)[C@@H](Cc1c[nH]c2ccccc12)NC(=O)[C@@H](CCCCN)NC(=O)[C@@H](CCCNC(=N)N)NC(=O)[C@H](N)CCCCN)C(=O)O` [Chain310D] (H-[dK][dR][dK][dW][dR][dW][dL][dF][dK][dK][dL]-OH), the “MIC against MRSA strains along with Ertapenem, D-peptide” value with S. aureus COL (MRSA) stood at 0.03 mg/L.

For the compound Gentamicin [reference compound], the “Inhibition zone, Escherichia coli” value in test [1] is listed as 22 mm. Moreover, the “Inhibition zone, Klebsiella pneumoniae” value in test [2] is 22 mm. The “Inhibition zone, Staphylococcus aureus” value in test [3] stood at 24 mm. For the same compound, the “Inhibition zone, Pseudomonas aeruginosa” value in [4] is 24 mm. The “Minimum inhibitory concentration, Escherichia coli (ATCC 25922)” value in test [5] was determined as 1 mg/L. The “Minimum inhibitory concentration, Klebsiella pneumoniae (ATCC 10031)” value in test [6] was found to be 0.25 mg/L. In test [7], the “Minimum inhibitory concentration, Pseudomonas aeruginosa (ATCC 27853)” value worked out at 0.25 mg/L. In addition, the “Minimum inhibitory concentration, Staphylococcus aureus (ATCC 25923)” value in test [8] came to 0.25 mg/L. In addition, the “zone of inhibition over the four bacteria” value in test [9] is listed as 22-24 mm.

These data come from patent publication US11096985B2, “Antimicrobial peptides, their variants and uses” (priority 2015, dated 2021).
